Patent US4511574A, “N-(4-Phenyl-2-thiazolyl)carbamate derivatives” (Mitsui Toatsu Kagaku Kabushiki Kaisha, priority 1981, dated 1985)
Counter-ions that a name gives are not always drawn.

How the values were obtained:
[1] = system: adjuvant arthritis (Mycobacterium tuberculosis adjuvant); assay: Adjuvant arthritis test; assay type: in vivo, SD male rats; settings: 5 mg/Kg subcutaneous, 9 times; left hind leg; average value from 16th to 20th days; * P<0.05, ** P<0.01, *** P<0.001 vs control
Excerpt: Next, a result of tests made on immuno-modulating activity in the adjuvant arthritis test is shown.
The adjuvant arthritis in rats caused by the injection of a Mycobacterium tuberculosis adjuvant is often utilized for a model test of chronic rheumatoid arthritis in the human.
The mechanism of manifestation of this disease has not completely been elucidated, but it is known that the cellular immunity plays an important role. The immuno-modulating activity of the compounds according to this invention was investigated in accordance with this known adjuvant arthritis test.
8-Week-old SD male rats were used for the test. In 0.1 ml of fluid paraffin, 0.4 mg of dry dead cells of Mycobacterium tuberculosis were suspended, and the suspension was injected under the heel skin of the right hind leg of each rat. Each of the compounds according to this invention was subcutaneously administered 9 times in total before and after the injection of the adjuvant. Each of the compounds of the present invention was dissolved or suspended in a 0.2% solution of carboxymethylcellulose in physiological saline and administered to each rat at a dose of 5 mg per Kg of the body weight. The swollen volume of the left hind leg was measured during the period extending from the day of injection to the day of completion of the test, and the swelling ratio was calculated. For comparison, a similar test was conducted using Levamisole hydrochloride. F.t tests were carried out on the test results obtained.

[2] = system: delayed hypersensitivity induced by picryl chloride; assay: Reinforcement test of delayed hypersensitivity (picryl chloride); assay type: in vivo, ICR male mice; settings: 50 mg/Kg oral, simultaneously with sensitization; 24 hours after challenging; average of both pinnae of eight mice; * P<0.05, ** P<0.01 vs control
Excerpt: This feature will hereinafter be described by way of test examples. Various test systems using animals have been routinely adopted for the determination of immunomodulating activity.
The delayed hypersensitivity induced on a mouse when picryl chloride(2-chloro-1,3,5-trinitrobenzene) is applied onto the skin of the mouse is known as a typical cellular immunity.
This test system was used for the reinforcement tests of the delayed hypersensitivity.
Groups of eight ICR male mice, each having a body weight of about 30 g or so, were used for the test.
Sensitization was effected by applying a 3% solution of picryl chloride in a 4/1 mixture of olive oil and acetone onto the shaved abdomen of each of the mice.
Simultaneously with the sensitization, a solution or suspension of a compound according to this invention dissolved or suspended in a 0.2% solution of carboxymethyl cellulose in a physiological saline was orally administered to the mouse at a dose of 50 mg per Kg of its body weight. To each mouse of a control group, a 0.2% carboxymethylcellulose solution in a physiological saline was similarly administered.
The delayed hypersensitivity was induced 7 days after the sensitization by pinching each of the pinnae of each mouse with a pair of forceps whose tip portions were wrapped with a felt impregnated with a 1% solution of picryl chloride in olive oil and coating the pinnae with the solution. The thickness of each pinna was measured before the challenging and 24 hours after the challenging and the ratio of increase of the thickness (average value of both of the pinnae of the eight mice) is shown in Table 1.
For comparison, a similar test was carried out using Levamisole hydrochloride.
F.t tests were carried out on the thus-obtained test results.

ddY male mice = assay: Acute toxicity test through oral administration; assay type: in vivo; settings: five ddY male mice per group, watched 7 days
Excerpt: TEST EXAMPLE 3 (ACUTE TOXICITY TEST THROUGH ORAL ADMINISTRATION)
Test Procedures: To each of a group of five ddY male mice, was orally administered a medicine dissolved or suspended in physiological saline. They were watched for 7 days after the administration and an estimated LD50 value was obtained.

SMILES | Swell suppression ratio to control group [1] | Ratio of Increase of Pinna Thickness [2] | estimated LD50 value (ddY male mice)
CS(=O)(=O)c1ccc(-c2csc(NC(=O)OCC(Cl)(Cl)Cl)n2)cc1 [drawing 10] | 30.0% | – | –
CCOC(=O)Nc1nc(-c2ccc([N+](=O)[O-])cc2)cs1 [drawing 11] | 71.4% | – | –
CCOC(=O)Nc1nc(-c2ccc([N+](=O)[O-])cc2)cs1 [drawing 7] | – | 34.8% | –
O=C(Nc1nc(-c2ccc([N+](=O)[O-])cc2)cs1)OCC(Cl)(Cl)Cl [drawing 9] | 45.0% | – | –
c1ccc([C@H]2CN3CCSC3=N2)cc1 [Levamisole.HCl, Levamisole hydrochloride, reference compound] | 19.8% | 31.2% | 200 to 300 mg/kg
CCOC(=O)Nc1nc(-c2ccc(S(C)(=O)=O)cc2)cs1 [drawing 8] | – | 36.0% | –
CS(=O)(=O)c1ccc(-c2csc(NC(=O)OCC(Cl)(Cl)Cl)n2)cc1 [drawing 6] | – | 37.8% | –
O=C(Nc1nc(-c2ccc([N+](=O)[O-])cc2)cs1)OCC(Cl)(Cl)Cl [drawing 5] | – | 36.1% | –
CCOC(=O)Nc1nc(-c2ccc(S(C)(=O)=O)cc2)cs1 [drawing 12] | 47.6% | – | –
